Values quoted from earlier work as cited in patent US10383918B2, “Compositions in the form of an injectable aqueous solution comprising human glucagon and a statistical co-polyamino acid” (ADOCIA, priority 2016, dated 2019).

Conditions: lyophilizate reconstituted at acidic pH (pH<3)

H-His-Ser-Gln-Gly-Thr-Phe-Thr-Ser-Asp-Tyr-Ser-Lys-Tyr-Leu-Asp-Ser-Arg-Arg-Ala-Gn-Asp-Phe-Val-Gn-Trp-Leu-Met-Asn-Thr-OH [human glucagon]
Time to appearance of human glucagon fibrils after the reconstitution: ≤ 24 h
